One may read the IC50 as the concentration at which inhibition is half-maximal.

Chain of SHP2 (Q06124 whole entry): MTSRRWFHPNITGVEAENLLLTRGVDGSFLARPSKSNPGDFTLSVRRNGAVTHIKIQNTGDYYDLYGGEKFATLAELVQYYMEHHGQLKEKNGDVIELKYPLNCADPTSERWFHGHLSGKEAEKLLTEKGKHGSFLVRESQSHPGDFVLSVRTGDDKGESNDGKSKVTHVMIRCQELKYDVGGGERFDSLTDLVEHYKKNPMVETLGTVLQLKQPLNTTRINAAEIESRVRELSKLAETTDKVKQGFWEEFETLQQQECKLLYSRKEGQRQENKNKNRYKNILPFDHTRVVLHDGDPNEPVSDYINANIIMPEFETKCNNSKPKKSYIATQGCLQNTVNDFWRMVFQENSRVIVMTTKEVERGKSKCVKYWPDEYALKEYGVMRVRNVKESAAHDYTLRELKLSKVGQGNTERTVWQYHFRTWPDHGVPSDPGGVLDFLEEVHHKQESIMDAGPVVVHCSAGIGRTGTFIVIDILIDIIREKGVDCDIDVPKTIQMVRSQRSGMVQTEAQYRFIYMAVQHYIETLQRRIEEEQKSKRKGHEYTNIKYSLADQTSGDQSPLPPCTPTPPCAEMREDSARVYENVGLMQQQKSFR

The first experiment has as its target SHP2 (Homo sapiens (Human), UniProt Q06124). Description: SHP2 Allosteric Inhibition Assay. The format is biochemical. The conditions noted are these: 0.5 nM SHP2 with 0.5 μM peptide IRS1_pY1172(dPEG8)pY1222; surrogate substrate DiFMUP; 25° C.; read-out: IC50. An excerpt: SHP2 Allosteric Inhibition Assay
SHP2 is allosterically activated through binding of bis-tyrosyl-phosphorylated peptides to its Src Homology 2 (SH2) domains. The latter activation step leads to the release of the auto-inhibitory interface of SHP2, which in turn renders the SHP2 protein tyrosine phosphatase (PTP) active and available for substrate recognition and reaction catalysis. The catalytic activity of SHP2 was monitored using the surrogate substrate DiFMUP in a prompt fluorescence assay format.
After 30-60 minutes incubation at 25° C., the surrogate substrate DiFMUP (Invitrogen, cat #D6567) was added to the reaction and incubated at 25° C. for 30 minutes. […] The inhibitor dose response curves were analyzed using normalized IC50 regression curve fitting with control based normalization.
On to `C[C@@H]1OCC2(CCN(c3nc4[nH]nc(Sc5ccnc(N)c5Cl)c4c(=O)n3C)CC2)[C@@H]1N` [Example 13, 3-((2-Amino-3-chloropyridin-4-yl)thio)-6-((3S,4S)-4-amino-3-methyl-2-oxa-8-azaspiro[4.5]decan-8-yl)-5-methyl-1,5-dihydro-4H-pyrazolo[3,4-d]pyrimidin-4-one], for which the IC50 turned out to be 27 nM.
Consider `Cn1c(N2CCC3(CCC[C@H]3N)CC2)nc2n[nH]c(-c3cccc(Cl)c3Cl)c2c1=O` [Example 2, (R)-6-(1-amino-8-azaspiro[4.5]decan-8-yl)-3-(2,3-dichlorophenyl)-5-methyl-2H-pyrazolo[3,4-d]pyrimidin-4(5H)-one], for which the IC50 amounted to 25.5 nM.

Staying with this experiment, now noted: 0.5 nM SHP2 with 0.5 μM peptide IRS1_pY1172(dPEG8)pY1222; surrogate substrate DiFMUP; 25° C.; read-out: SHP2 IC50.
Take `C[C@@H]1OCC2(CCN(c3nc4[nH]nc(-c5ccccc5)c4c(=O)n3C)CC2)[C@@H]1N` [Example 41, 6-((3S,4S)-4-amino-3-methyl-2-oxa-8-azaspiro[4.5]decan-8-yl)-5-methyl-3-phenyl-1,5-dihydro-4H-pyrazolo[3,4-d]pyrimidin-4-one]: the IC50 came to 33 nM.
On to `C[C@@H]1OCC2(CCN(c3nc4[nH]nc(-c5cc(N)ncc5Cl)c4c(=O)n3C)CC2)[C@@H]1N` [Example 80, 6-((3S,4S)-4-amino-3-methyl-2-oxa-8-azaspiro[4.5]decan-8-yl)-3-(2-amino-5-chloropyridin-4-yl)-5-methyl-1,5-dihydro-4H-pyrazolo[3,4-d]pyrimidin-4-one], for which the IC50 stood at 129 nM.
The same measure, in the same setting: under `C[C@@H]1OCC2(CCN(c3nc4[nH]nc(Sc5ccnc(N)c5Cl)c4c(=O)n3C)CC2)[C@@H]1N` [Example 84, 3-((2-amino-3-chloropyridin-4-yl)thio)-6-((3S,4S)-4-amino-3-methyl-2-oxa-8-azaspiro[4.5]decan-8-yl)-5-methyl-1,5-dihydro-4H-pyrazolo[3,4-d]pyrimidin-4-one] stands 27 nM.
Turning to `Cn1c(N2CCC3(CC2)C[C@H](F)C[C@H]3N)nc2[nH]nc(-c3ccnc(N)c3Cl)c2c1=O` [Example 37, 3-(2-amino-3-chloropyridin-4-yl)-6-((1R,3S)-1-amino-3-fluoro-8-azaspiro[4.5]decan-8-yl)-5-methyl-1,5-dihydro-4H-pyrazolo[3,4-d]pyrimidin-4-one], the IC50 was 27 nM.
Still for that read-out and setting: the figure for `C[C@@H]1OCC2(CCN(c3nc4[nH]nc(-c5cccc(F)c5F)c4c(=O)n3C)CC2)[C@@H]1N` [Example 60, 6-((3S,4S)-4-amino-3-methyl-2-oxa-8-azaspiro[4.5]decan-8-yl)-3-(2,3-difluorophenyl)-5-methyl-1,5-dihydro-4H-pyrazolo[3,4-d]pyrimidin-4-one] is 13 nM.
Still for that read-out and setting: the figure for `Cn1c(N2CCC3(CCCCC3N)CC2)nc2[nH]nc(-c3cccc(Cl)c3Cl)c2c1=O` (centres unmarked) [Example 24, 6-(7-amino-3-azaspiro[5.5]undecan-3-yl)-3-(2,3-dichlorophenyl)-5-methyl-1,5-dihydro-4H-pyrazolo[3,4-d]pyrimidin-4-one] is 72 nM; for `Cc1nc(N)ccc1-c1n[nH]c2nc(N3CCC4(CC3)CC(F)(F)C[C@H]4N)n(C)c(=O)c12` [Example 49, (R)-3-(6-amino-2-methylpyridin-3-yl)-6-(1-amino-3,3-difluoro-8-azaspiro[4.5]decan-8-yl)-5-methyl-1,5-dihydro-4H-pyrazolo[3,4-d]pyrimidin-4-one] it is 9 nM; for `C[C@@H]1OCC2(CCN(c3nc4[nH]nc(-c5ccnc(Cl)c5)c4c(=O)n3C)CC2)[C@@H]1N` [Example 44, 6-((3S,4S)-4-amino-3-methyl-2-oxa-8-azaspiro[4.5]decan-8-yl)-3-(2-chloropyridin-4-yl)-5-methyl-1,5-dihydro-4H-pyrazolo[3,4-d]pyrimidin-4-one] it is 16 nM.
The same measure, in the same setting: under `C[C@@H]1OCC2(CCN(c3nc4[nH]nc(-c5ccnc(N6CCCC6)c5Cl)c4c(=O)n3C)CC2)[C@@H]1N` [Example 31, 6-((3S,4S)-4-amino-3-methyl-2-oxa-8-azaspiro[4.5]decan-8-yl)-3-(3-chloro-2-(pyrrolidin-1-yl)pyridin-4-yl)-5-methyl-1,5-dihydro-4H-pyrazolo[3,4-d]pyrimidin-4-one] stands 12 nM; under `C[C@@H]1OCC2(CCN(c3nc4[nH]nc(-c5cc(F)cc(F)c5)c4c(=O)n3C)CC2)[C@@H]1N` [Example 65, 6-((3S,4S)-4-amino-3-methyl-2-oxa-8-azaspiro[4.5]decan-8-yl)-3-(3,5-difluorophenyl)-5-methyl-1,5-dihydro-4H-pyrazolo[3,4-d]pyrimidin-4-one], 38 nM; under `COc1ccc(-c2n[nH]c3nc(N4CCC5(CC4)CO[C@@H](C)[C@H]5N)n(C)c(=O)c23)cc1` [Example 42, 6-((3S,4S)-4-amino-3-methyl-2-oxa-8-azaspiro[4.5]decan-8-yl)-3-(4-methoxyphenyl)-5-methyl-1,5-dihydro-4H-pyrazolo[3,4-d]pyrimidin-4-one], 20 nM.
With `Cn1c(N2CCC3(CC[C@@H]3N)CC2)nc2[nH]nc(-c3cccc(Cl)c3Cl)c2c1=O` [Example 17, (S)-6-(1-amino-7-azaspiro[3.5]nonan-7-yl)-3-(2,3-dichlorophenyl)-5-methyl-1,5-dihydro-4H-pyrazolo[3,4-d]pyrimidin-4-one], the IC50 was 44 nM.
With `C[C@H]1C[C@@H](N)C2(CCN(c3nc4[nH]nc(-c5ccnc(N)c5Cl)c4c(=O)n3C)CC2)C1` [Example 76, 3-(2-amino-3-chloropyridin-4-yl)-6-((1R,3R)-1-amino-3-methyl-8-azaspiro[4.5]decan-8-yl)-5-methyl-1,5-dihydro-4H-pyrazolo[3,4-d]pyrimidin-4-one], the IC50 worked out at 32 nM.
Same read-out and setting: the figure for `C[C@@H]1OCC2(CCN(c3nc4[nH]nc(-c5ccnc(Cl)c5Br)c4c(=O)n3C)CC2)[C@@H]1N` [Example 33, 6-((3S,4S)-4-amino-3-methyl-2-oxa-8-azaspiro[4.5]decan-8-yl)-3-(3-bromo-2-chloropyridin-4-yl)-5-methyl-1,5-dihydro-4H-pyrazolo[3,4-d]pyrimidin-4-one] is 13 nM; for `C[C@@H]1OCC2(CCN(c3nc4[nH]nc(-c5ccnc(N)c5)c4c(=O)n3C)CC2)[C@@H]1N` [Example 45, 6-((3S,4S)-4-amino-3-methyl-2-oxa-8-azaspiro[4.5]decan-8-yl)-3-(2-aminopyridin-4-yl)-5-methyl-1,5-dihydro-4H-pyrazolo[3,4-d]pyrimidin-4-one] it is 37 nM.
The same measure, in the same setting: under `C[C@@H]1OCC2(CCN(c3nc4[nH]nc(-c5cc(F)ccc5F)c4c(=O)n3C)CC2)[C@@H]1N` [Example 62, 6-((3S,4S)-4-amino-3-methyl-2-oxa-8-azaspiro[4.5]decan-8-yl)-3-(2,5-difluorophenyl)-5-methyl-1,5-dihydro-4H-pyrazolo[3,4-d]pyrimidin-4-one] stands 17 nM; under `Cn1c(N2CCC(C)(CN)CC2)nc2[nH]nc(Sc3cccc(Cl)c3Cl)c2c1=O` [Example 83, 6-(4-(aminomethyl)-4-methylpiperidin-1-yl)-3-((2,3-dichlorophenyl)thio)-5-methyl-1,5-dihydro-4H-pyrazolo[3,4-d]pyrimidin-4-one], 8 nM; under `C[C@@H]1OCC2(CCN(c3nc4[nH]nc(-c5ccc(N)nc5Cl)c4c(=O)n3C)CC2)[C@@H]1N` [Example 52, 3-(6-amino-2-chloropyridin-3-yl)-6-((3S,4S)-4-amino-3-methyl-2-oxa-8-azaspiro[4.5]decan-8-yl)-5-methyl-1,5-dihydro-4H-pyrazolo[3,4-d]pyrimidin-4-one], 23 nM.
As for `C[C@@H]1OCC2(CCN(c3nc4[nH]nc(-c5ccnc(N(C)C)c5Cl)c4c(=O)n3C)CC2)[C@@H]1N` [Example 71, 6-((3S,4S)-4-amino-3-methyl-2-oxa-8-azaspiro[4.5]decan-8-yl)-3-(3-chloro-2-(dimethylamino)pyridin-4-yl)-5-methyl-1,5-dihydro-4H-pyrazolo[3,4-d]pyrimidin-4-one], the IC50 turned out to be 22 nM.
In the case of `C[C@@H]1OCC2(CCN(c3nc4[nH]nc(-c5ccnc(Br)c5)c4c(=O)n3C)CC2)[C@@H]1N` [Example 34, 6-((3S,4S)-4-amino-3-methyl-2-oxa-8-azaspiro[4.5]decan-8-yl)-3-(2-bromopyridin-4-yl)-5-methyl-1,5-dihydro-4H-pyrazolo[3,4-d]pyrimidin-4-one], the IC50 came to 27 nM.
The same measure, in the same setting: under `C[C@@H]1OCC2(CCN(c3nc4[nH]nc(-c5cccc(F)c5)c4c(=O)n3C)CC2)[C@@H]1N` [Example 61, 6-((3S,4S)-4-amino-3-methyl-2-oxa-8-azaspiro[4.5]decan-8-yl)-3-(3-fluorophenyl)-5-methyl-1,5-dihydro-4H-pyrazolo[3,4-d]pyrimidin-4-one] stands 14 nM; under `C[C@@H]1OCC2(CCN(c3nc4[nH]nc(-c5ccnc(N6CCOCC6)c5Cl)c4c(=O)n3C)CC2)[C@@H]1N` [Example 30, 6-((3S,4S)-4-amino-3-methyl-2-oxa-8-azaspiro[4.5]decan-8-yl)-3-(3-chloro-2-morpholinopyridin-4-yl)-5-methyl-1,5-dihydro-4H-pyrazolo[3,4-d]pyrimidin-4-one], 103 nM; under `C[C@H]1C[C@@H](N)C2(CCN(c3nc4[nH]nc(-c5ccncc5)c4c(=O)n3C)CC2)C1` [Example 36, 6-((1R,3R)-1-amino-3-methyl-8-azaspiro[4.5]decan-8-yl)-5-methyl-3-(pyridin-4-yl)-1,5-dihydro-4H-pyrazolo[3,4-d]pyrimidin-4-one], 9 nM.
In the case of `Cn1c(N2CCC3(CCC[C@H]3N)CC2)nc2[nH]nc(-c3ccnc(N)c3Cl)c2c1=O` [Example 16, (R)-3-(2-amino-3-chloropyridin-4-yl)-6-(1-amino-8-azaspiro[4.5]decan-8-yl)-5-methyl-1,5-dihydro-4H-pyrazolo[3,4-d]pyrimidin-4-one], the IC50 is 360 nM.

(Values after US10975080B2, “Compounds and compositions for inhibiting the activity of SHP2” (NOVARTIS AG, priority 2015, dated 2021).)
